In US8772323B2, “Benzoxazole- and tetrahydrobenzoxazole-substituted pyridazinones as GPR119 agonists” (Boehringer Ingelheim International GmbH, priority 2010, dated 2014):
Structures can show the parent of a compound that is named as a salt.

What was measured:
[1] = molecular target: human GPR119 (Homo sapiens (Human), UniProt Q8TDV5); assay: AlphaScreen cAMP assay in Min-6/hGPR119 cells (GPR119 activation, intracellular cAMP); format: cell-based; details: MIN6 cells stably transfected with human GPR119; 45 minutes' incubation at RT; AlphaScreen cAMP Assay Kit
Procedure, shortened: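 MIN6 cells stably expressing human GPR119 plated 10000 cells/well and held 24 h at 37° C. Compounds applied in stimulating buffer, pH 7.4, with 0.5 mM IBMX, 0.1% BSA, 1% DMSO final, for 45 min at RT. Intracellular cAMP read by AlphaScreen.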

Chain of human GPR119 (Q8TDV5 whole entry): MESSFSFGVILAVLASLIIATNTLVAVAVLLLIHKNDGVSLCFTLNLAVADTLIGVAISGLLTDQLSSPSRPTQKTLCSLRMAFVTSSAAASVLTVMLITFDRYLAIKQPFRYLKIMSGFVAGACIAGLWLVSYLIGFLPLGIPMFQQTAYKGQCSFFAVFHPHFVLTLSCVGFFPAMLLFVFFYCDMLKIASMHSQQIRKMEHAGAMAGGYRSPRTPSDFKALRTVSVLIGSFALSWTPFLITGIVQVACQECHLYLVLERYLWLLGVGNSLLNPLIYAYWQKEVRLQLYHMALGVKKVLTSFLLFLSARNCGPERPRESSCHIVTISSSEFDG

| Structure (SMILES) | EC50 [1] [nM] | melting point [°C] |
| --- | --- | --- |
| CC1CC(=O)NN=C1c1ccc2nc(-c3ccco3)oc2c1 (stereo not drawn) [Example 108, 5-methyl-6-(2-furan-2-yl-benzoxazol-6-yl)-4,5-dihydro-2H-pyridazin-3-one] | 346 | 209 |
| CC1CC(=O)NN=C1c1ccc2nc(-c3ccc(N)nc3)oc2c1 (stereo not drawn) [Example 109, 6-[2-(6-amino-pyridin-3-yl)-benzoxazol-6-yl]-5-methyl-4,5-dihydro-2H-pyridazin-3-one] | 1410 | 293 |
| CC1CC(=O)NN=C1c1ccc2nc(-c3cccnc3)oc2c1 (stereo not drawn) [Example 110, 5-methyl-6-(2-pyridin-3-yl-benzoxazol-6-yl)-4,5-dihydro-2H-pyridazin-3-one] | 4540 | 218 |
| CC1CC(=O)NN=C1c1ccc2nc(N3CCSCC3)oc2c1 (stereo not drawn) [Example 113, 5-methyl-6-(2-thiomorpholin-4-yl-benzoxazol-6-yl)-4,5-dihydro-2H-pyridazin-3-one] | 1900 | 218 |
| CCOC(=O)N1CCN(c2nc3ccc(C4=NNC(=O)CC4C)cc3o2)CC1 (stereo not drawn) [Example 114, ethyl 4-[6-(4-methyl-6-oxo-1,4,5,6-tetrahydro-pyridazin-3-yl)-benzoxazol-2-yl]-piperazine-1-carboxylate] | 2290 | 239 |
| CC1CC(=O)NN=C1c1ccc2nc(N3CCCCC3)oc2c1 (stereo not drawn) [Example 115, 5-methyl-6-(2-piperidin-1-yl-benzoxazol-6-yl)-4,5-dihydro-2H-pyridazin-3-one] | 1130 | 235 |
| CCC1CC(=O)NN=C1c1ccc2nc(-c3ccc(OCC(C)(C)N4CCCC4)cc3)oc2c1 (stereo not drawn) [Example 229, 5-ethyl-6-(2-{4-[2-methyl-2-(pyrrolidin-1-yl)propoxy]phenyl}-1,3-benzoxazol-6-yl)-2,3,4,5-tetrahydropyridazin-3-one] | 398 | – |
| CCC1CC(=O)NN=C1c1ccc2nc(-c3cccc(OC(C)CN4CCCCC4)c3)oc2c1 (stereo not drawn) [Example 230, 5-ethyl-6-{2-[3-(1-methyl-2-piperidin-1-yl-ethoxy)-phenyl]-benzoxazol-6-yl}-4,5-dihydro-2H-pyridazin-3-one] | 1190 | – |
| CCC1CC(=O)NN=C1c1ccc2nc(-c3ccc(OCC4CCCCN4C)cc3)oc2c1 (stereo not drawn) [Example 233, 5-ethyl-6-{2-[4-(1-methyl-2-piperidin-2-yl-methoxy)-phenyl]-benzoxazol-6-yl}-4,5-dihydro-2H-pyridazin-3-one] | 848 | – |
| CCC1CC(=O)NN=C1c1ccc2nc(-c3ccc(OC4CCCCCN4C)cc3)oc2c1 (stereo not drawn) [Example 234, 5-ethyl-6-{2-[4-(1-methyl-2-azepan-2-yloxy)-phenyl]-benzoxazol-6-yl}-4,5-dihydro-2H-pyridazin-3-one] | 306 | – |
| CC[C@H]1CC(=O)NN=C1c1ccc2nc(-c3ccc(OCC(C)N4CCCCC4)cc3)oc2c1 (stereo partly drawn) [Example 236, 5(S)-ethyl-6-{2-[4-(2-piperidin-1-yl-propoxy)-phenyl]-benzoxazol-6-yl}-4,5-dihydro-2H-pyridazin-3-one] | 1100 | – |
| CCC1CC(=O)NN=C1c1ccc2nc(-c3ccc(OC[C@@H]4CCCN4)cc3)oc2c1 (stereo partly drawn) [Example 238, 5-ethyl-6-{2-[4-(S-pyrrolidin-2-yl-methoxy)-phenyl]-benzoxazol-6-yl}-4,5-dihydro-2H-pyridazin-3-one×HCl] | 2950 | – |
| CCC1CC(=O)NN=C1c1ccc2nc(-c3ccc(OC[C@H]4CCCN4)cc3)oc2c1 (stereo partly drawn) [Example 239, 5-ethyl-6-(2-{4-[(2R)-pyrrolidin-2-ylmethoxy]phenyl}-1,3-benzoxazol-6-yl)-2,3,4,5-tetrahydropyridazin-3-one] | 1650 | – |
| CCC1CC(=O)NN=C1c1ccc2nc(-c3ccc(OCCN4CCC5(CCCCC5)CC4)cc3)oc2c1 (stereo not drawn) [Example 245, 6-(2-{4-[2-(3-aza-spiro[5.5]undec-3-yl)-ethoxy]-phenyl}-benzoxazol-6-yl)-5-ethyl-4,5-dihydro-2H-pyridazin-3-one] | 434 | – |
| COC(=O)c1cccc(-c2nc3ccc(-c4n[nH]c(=O)cc4C)cc3o2)c1 [Example 254, methyl 3-[6-(4-methyl-6-oxo-1,6-dihydro-pyridazin-3-yl)-benzoxazol-2-yl]-benzoate] | 8950 | – |
| Cc1cc(=O)[nH]nc1-c1ccc2nc(-c3ccc(C(=O)O)cc3)oc2c1 [Example 255, 4-[6-(4-methyl-6-oxo-1,6-dihydro-pyridazin-3-yl)-benzoxazol-2-yl]-benzoic acid] | 7240 | – |
| Cc1cc(=O)[nH]nc1-c1ccc2nc(-c3cccs3)oc2c1 [Example 256, 5-methyl-6-(2-thiophen-2-yl-benzoxazol-6-yl)-2H-pyridazin-3-one] | 9380 | – |
| O=c1ccc(-c2ccc3nc(-c4cccs4)oc3c2)n[nH]1 [Example 257, 6-(2-thiophen-2-yl-benzoxazol-6-yl)-2H-pyridazin-3-one] | 456 | – |
| CC[C@H]1CC(=O)NN=C1c1ccc2nc(-c3ccc(OCCN(C(C)C)C(C)C)cc3)oc2c1 [Example 258, (S)-6-{2-[4-(2-diisopropylamino-ethoxy)-phenyl]-benzoxazol-6-yl}-5-ethyl-4,5-dihydro-2H-pyridazin-3-one] | 605 | – |

Now those with a lower EC50 [1], led by results:

| EC50 [1] [nM] | melting point [°C] | Structure (SMILES) |
| --- | --- | --- |
| 296 | – | CCC1CC(=O)NN=C1c1ccc2nc(-c3ccc(OC[C@@H]4CCCN4C)cc3)oc2c1 (stereo partly drawn) [Example 242, 5-ethyl-6-{2-[4-(1-methyl-S-pyrrolidin-2-yl-methoxy)-phenyl]-benzoxazol-6-yl}-4,5-dihydro-2H-pyridazin-3-one] |
| 296 | – | CCC1CC(=O)NN=C1c1ccc2nc(-c3ccc(OC(C)CO)cc3)oc2c1 (stereo not drawn) [Example 251, 5-ethyl-6-{2-[4-(2-hydroxy-1-methyl-ethoxy)-phenyl]-benzoxazol-6-yl}-4,5-dihydro-2H-pyridazin-3-one] |
| 197 | – | CCC1CC(=O)NN=C1c1ccc2nc(-c3ccc(OCCN4CCC(C)CC4)cc3)oc2c1 (stereo not drawn) [Example 243, 5-ethyl-6-(2-{4-[2-(4-methyl-piperidin-1-yl)-ethoxy]-phenyl}-benzoxazol-6-yl)-4,5-dihydro-2H-pyridazin-3-one] |
| 191 | – | CCC1CC(=O)NN=C1c1ccc2nc(-c3ccc(OC[C@H]4CCCN4C(C)C)cc3)oc2c1 (stereo partly drawn) [Example 241, 5-ethyl-6-{2-[4-(1-isopropyl-R-pyrrolidin-2-yl-methoxy)-phenyl]-benzoxazol-6-yl}-4,5-dihydro-2H-pyridazin-3-one] |
| 186 | – | CCC1CC(=O)NN=C1c1ccc2nc(-c3ccc(OC[C@@H]4CCCN4C(C)C)cc3)oc2c1 (stereo partly drawn) [Example 240, 5-ethyl-6-{2-[4-(1-isopropyl-5-pyrrolidin-2-yl-methoxy)-phenyl]-benzoxazol-6-yl}-4,5-dihydro-2H-pyridazin-3-one] |
| 181 | – | CCCC1CCN(CCOc2ccc(-c3nc4ccc(C5=NNC(=O)CC5CC)cc4o3)cc2)CC1 (stereo not drawn) [Example 244, 5-ethyl-6-(2-{4-[2-(4-propyl-piperidin-1-yl)-ethoxy]-phenyl}-benzoxazol-6-yl)-4,5-dihydro-2H-pyridazin-3-one] |
| 159 | – | CCC1CC(=O)NN=C1c1ccc2nc(-c3ccc(OCCN4CCC(F)CC4)cc3)oc2c1 (stereo not drawn) [Example 248, 5-ethyl-6-(2-{4-[2-(4-fluoro-piperidin-1-yl)-ethoxy]-phenyl}-benzoxazol-6-yl)-4,5-dihydro-2H-pyridazin-3-one] |
| 120 | 222 | CC1CC(=O)NN=C1c1ccc2nc(-c3cccs3)oc2c1 (stereo not drawn) [Example 106, 5-methyl-6-(2-thiophen-2-yl-benzoxazol-6-yl)-4,5-dihydro-2H-pyridazin-3-one] |
| 120 | – | CCC1CC(=O)NN=C1c1ccc2nc(-c3ccc(OC(C)(C)CN4CCOCC4)cc3)oc2c1 (stereo not drawn) [Example 231, 6-{2-[4-(1,1-dimethyl-2-morpholin-4-yl-ethoxy)-phenyl]-benzoxazol-6-yl}-5-ethyl-4,5-dihydro-2H-pyridazin-3-one] |
| 73 | – | CC[C@@H]1CC(=O)NN=C1c1ccc2nc(-c3ccc(OCC(C)N4CCCCC4)cc3)oc2c1 (stereo partly drawn) [Example 237, 5(R)-ethyl-6-{2-[4-(2-piperidin-1-yl-propoxy)-phenyl]-benzoxazol-6-yl}-4,5-dihydro-2H-pyridazin-3-one] |
| 69 | – | CCC1CC(=O)NN=C1c1ccc2nc(-c3ccc(OCC(C)(C)N4CCOCC4)cc3)oc2c1 (stereo not drawn) [Example 232, 5-ethyl-6-{2-[4-(2-methyl-2-morpholin-4-yl-propoxy)-phenyl]-benzoxazol-6-yl}-4,5-dihydro-2H-pyridazin-3-one] |
| 62 | – | CCC1CC(=O)NN=C1c1ccc2nc(-c3ccc(OCCN4CCSCC4)cc3)oc2c1 (stereo not drawn) [Example 247, 5-ethyl-6-{2-[4-(2-thiomorpholin-4-yl-ethoxy)-phenyl]-benzoxazol-6-yl}-4,5-dihydro-2H-pyridazin-3-one] |
| 58 | – | CCCN(CCOc1ccc(-c2nc3ccc(C4=NNC(=O)CC4CC)cc3o2)cc1)C(C)C (stereo not drawn) [Example 249, 5-ethyl-6-(2-{4-[2-(isopropyl-propyl-amino)-ethoxy]-phenyl}-benzoxazol-6-yl)-4,5-dihydro-2H-pyridazin-3-one] |
| 54 | – | CCC1CC(=O)NN=C1c1ccc2nc(-c3ccc(OCCN4C[C@@H](C)O[C@@H](C)C4)cc3)oc2c1 (stereo partly drawn) [Example 246, 6-(2-{4-[2-(cis-2,6-dimethyl-morpholin-4-yl)-ethoxy]-phenyl}-benzoxazol-6-yl)-5-ethyl-4,5-dihydro-2H-pyridazin-3-one] |
| 24 | – | CCC[C@H]1C(=O)NN=C(c2ccc3nc(-c4ccc(OC(C)C)cc4)oc3c2)[C@@H]1C [Example 260, (4R,5R)-5-methyl-6-{2-[4-(propan-2-yloxy)phenyl]-1,3-benzoxazol-6-yl}-4-propyl-2,3,4,5-tetrahydropyridazin-3-one] |
| 22 | – | CC[C@@H]1CC(=O)NN=C1c1ccc2nc(-c3ccc(OCCN(C(C)C)C(C)C)cc3)oc2c1 [Example 259, (R)-6-{2-[4-(2-diisopropylamino-ethoxy)-phenyl]-benzoxazol-6-yl}-5-ethyl-4,5-dihydro-2H-pyridazin-3-one] |
